Laboratory results published in PubChem BioAssay (NCI).
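Protocol summary: plate cells (96-well), add compound at 5 concentrations, incubate 48 h, interpolate endpoints linearly. GI50 = concentration required for 50% inhibition of growth. The concentration for full growth arrest is given as TGI.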

What was measured:
Test in all cases: inhibition of tumour cell growth, NCI panel, 48 h
786-0 renal = system: 786-0 renal
A498 renal = system: A498 renal
A549 NSCLC = system: A549 NSCLC
ACHN renal = system: ACHN renal
BT-549 breast = system: BT-549 breast
CAKI-1 renal = system: CAKI-1 renal
CCRF-CEM leukemia = system: CCRF-CEM leukemia
COLO 205 colon = system: COLO 205 colon
DU-145 prostate = system: DU-145 prostate
EKVX NSCLC = system: EKVX NSCLC
HCC-2998 colon = system: HCC-2998 colon
HCT-15 colon = system: HCT-15 colon
HL-60(TB) leukemia = system: HL-60(TB) leukemia
HOP-62 NSCLC = system: HOP-62 NSCLC
HOP-92 NSCLC = system: HOP-92 NSCLC
HS 578T breast = system: HS 578T breast
HT29 colon = system: HT29 colon
IGROV1 ovarian = system: IGROV1 ovarian
K-562 leukemia = system: K-562 leukemia
KM12 colon = system: KM12 colon
LOX IMVI melanoma = system: LOX IMVI melanoma
M14 melanoma = system: M14 melanoma
MALME-3M melanoma = system: MALME-3M melanoma
MCF7 breast = system: MCF7 breast
MDA-MB-231 breast = system: MDA-MB-231 breast
MDA-MB-435 = system: MDA-MB-435
MDA-MB-468 breast = system: MDA-MB-468 breast
MOLT-4 leukemia = system: MOLT-4 leukemia
NCI-H226 lung = system: NCI-H226 lung
NCI-H23 lung = system: NCI-H23 lung
NCI-H460 lung = system: NCI-H460 lung
NCI-H522 lung = system: NCI-H522 lung
NCI/ADR-RES ovarian = system: NCI/ADR-RES ovarian
OVCAR-3 ovarian = system: OVCAR-3 ovarian
OVCAR-4 ovarian = system: OVCAR-4 ovarian
OVCAR-5 ovarian = system: OVCAR-5 ovarian
OVCAR-8 ovarian = system: OVCAR-8 ovarian
PC-3 prostate = system: PC-3 prostate
RPMI-8226 leukemia = system: RPMI-8226 leukemia
RXF 393 renal = system: RXF 393 renal
SF-268 CNS = system: SF-268 CNS
SF-295 CNS = system: SF-295 CNS
SF-539 CNS = system: SF-539 CNS
SK-MEL-2 melanoma = system: SK-MEL-2 melanoma
SK-MEL-28 melanoma = system: SK-MEL-28 melanoma
SK-MEL-5 melanoma = system: SK-MEL-5 melanoma
SK-OV-3 ovarian = system: SK-OV-3 ovarian
SN12C renal = system: SN12C renal
SNB-19 CNS = system: SNB-19 CNS
SR leukemia = system: SR leukemia
SW-620 colon = system: SW-620 colon
T-47D breast = system: T-47D breast
TK-10 renal = system: TK-10 renal
U251 CNS = system: U251 CNS
UACC-257 melanoma = system: UACC-257 melanoma
UACC-62 melanoma = system: UACC-62 melanoma
UO-31 renal = system: UO-31 renal

## COc1ccc(C(=O)/C=C/c2ccc(Cl)c(Cl)c2)cc1S(N)(=O)=O
786-0 renal
  GI50: 1620 nM
  TGI: 3110 nM
A498 renal
  GI50: 8860 nM
  TGI: 22100 nM
A549 NSCLC
  GI50: 2170 nM
  TGI: 10500 nM
ACHN renal
  GI50: 1710 nM
  TGI: 3110 nM
BT-549 breast
  GI50: 1630 nM
  TGI: 3330 nM
CAKI-1 renal
  GI50: 1750 nM
  TGI: 4190 nM
CCRF-CEM leukemia
  GI50: 2700 nM
  TGI: 7950 nM
COLO 205 colon
  GI50: 1830 nM
  TGI: 3430 nM
DU-145 prostate
  GI50: 3500 nM
  TGI: 12800 nM
EKVX NSCLC
  GI50: 2120 nM
  TGI: 4730 nM
HCC-2998 colon
  GI50: 1400 nM
  TGI: 2710 nM
HCT-15 colon
  GI50: 496 nM
  TGI: 1810 nM
HL-60(TB) leukemia
  GI50: 1880 nM
  TGI: 6310 nM
HOP-62 NSCLC
  GI50: 1890 nM
  TGI: 4750 nM
HOP-92 NSCLC
  GI50: 2290 nM
  TGI: 7310 nM
HS 578T breast
  GI50: 6010 nM
  TGI: 52000 nM
HT29 colon
  GI50: 1460 nM
  TGI: 2770 nM
IGROV1 ovarian
  GI50: 2000 nM
  TGI: 5130 nM
K-562 leukemia
  GI50: 2030 nM
  TGI: 10800 nM
KM12 colon
  GI50: 888 nM
  TGI: 2430 nM
LOX IMVI melanoma
  GI50: 653 nM
  TGI: 1930 nM
M14 melanoma
  GI50: 1860 nM
  TGI: 3900 nM
MALME-3M melanoma
  GI50: 2150 nM
  TGI: 5170 nM
MCF7 breast
  GI50: 1050 nM
  TGI: 3160 nM
MDA-MB-231 breast
  GI50: 1990 nM
  TGI: 4110 nM
MDA-MB-435
  GI50: 2420 nM
  TGI: 7260 nM
MDA-MB-468 breast
  GI50: 1470 nM
  TGI: 2980 nM
MOLT-4 leukemia
  GI50: 2350 nM
  TGI: 6750 nM
NCI-H226 lung
  GI50: 3040 nM
  TGI: 13400 nM
NCI-H23 lung
  GI50: 1750 nM
  TGI: 3430 nM
NCI-H460 lung
  GI50: 2720 nM
  TGI: 8220 nM
NCI-H522 lung
  GI50: 1580 nM
  TGI: 3160 nM
NCI/ADR-RES ovarian
  GI50: 2250 nM
  TGI: 5930 nM
OVCAR-3 ovarian
  GI50: 1190 nM
  TGI: 2550 nM
OVCAR-4 ovarian
  GI50: 1600 nM
  TGI: 2970 nM
OVCAR-5 ovarian
  GI50: 1600 nM
  TGI: 3340 nM
OVCAR-8 ovarian
  GI50: 2000 nM
  TGI: 5750 nM
PC-3 prostate
  GI50: 1860 nM
  TGI: 5070 nM
RPMI-8226 leukemia
  GI50: 1670 nM
  TGI: 5960 nM
RXF 393 renal
  GI50: 1740 nM
  TGI: 3500 nM
SF-268 CNS
  GI50: 2910 nM
  TGI: 11900 nM
SF-295 CNS
  GI50: 1740 nM
  TGI: 3770 nM
SF-539 CNS
  GI50: 1670 nM
  TGI: 3250 nM
SK-MEL-2 melanoma
  GI50: 5660 nM
  TGI: 18600 nM
SK-MEL-28 melanoma
  GI50: 1750 nM
  TGI: 3260 nM
SK-MEL-5 melanoma
  GI50: 2450 nM
  TGI: 6890 nM
SK-OV-3 ovarian
  GI50: 5530 nM
  TGI: 18000 nM
SN12C renal
  GI50: 1390 nM
  TGI: 2740 nM
SNB-19 CNS
  GI50: 1880 nM
  TGI: 4210 nM
SR leukemia
  GI50: 797 nM
  TGI: 10200 nM
SW-620 colon
  GI50: 1340 nM
  TGI: 3520 nM
T-47D breast
  GI50: 1970 nM
  TGI: 5570 nM
TK-10 renal
  GI50: 2020 nM
  TGI: 5890 nM
U251 CNS
  GI50: 1410 nM
  TGI: 2930 nM
UACC-257 melanoma
  GI50: 2500 nM
  TGI: 8990 nM
UACC-62 melanoma
  GI50: 1480 nM
  TGI: 2960 nM
UO-31 renal
  GI50: 1270 nM
  TGI: 2520 nM
